According to PMC5634595, “Properties of halogenated and sulfonated porphyrins relevant for the selection of photosensitizers in anticancer and antimicrobial therapies” (PLoS ONE, 2017):

Columns and labels:
HSA = HSA (Homo sapiens, UniProt P02768); test: Binding to HSA by fluorescence quenching (Stern-Volmer, Scatchard)
Description: The binding of the PS to HSA was studied by spectrofluorometry at room temperature. An aqueous (phosphate buffer saline, PBS) solution of HSA was titrated with varying concentrations of the respective porphyrin solutions. HSA was excited at 295 nm and fluorescence was recorded between 300 nm and 400 nm. The systematic lowering of HSA fluorescence with increasing photosensitizer concentrations was noted and used in the determination of the binding constants and the number of binding sites on HSA according to Scatchard equation. The changes in HSA fluorescence intensity were related to porphyrin concentrations by the Stern-Volmer relationship. The binding constant (Kb) of PS to lipoproteins was also determined using the spectroscopic titration method. The sets of steady-state emission spectra of PBS solutions with different concentrations of HDL and LDL, to which the porphyrin (5 μM) was added were measured. The fluorescence intensity of the dye increased upon its partitioning into the lipoproteins. To obtain Kb, F versus [L] data were plotted and fitted to by a nonlinear regression routine.

[1] = Dynamic light scattering and zeta potential of PS-Pluronic L121 micelles; assay type: physicochemical; details: Pluronic L121-based formulation, DLS, homogeneous distribution
Description: Micellar formulations with Pluronic […] were prepared according to a method recently described. The micelles were characterized by Dynamic Light Scattering (DLS) using a Malvern Zetaziser Nano ZS system. The apparent diffusion coefficients of the micelles were obtained from the normalized time correlation function of the scattered electric field, g(1)(τ), using the cumulants analysis. An average value was obtained from repeated measurements for each sample (N = 3).

A549 cells = test: Dark cytotoxicity, MTT; assay type: cell-based, human; details: A549, 100 μM, 24 h
Description: The studies were performed on human lung adenocarcinoma (A549), murine colon carcinoma (CT26) and murine endothelial/vascular epithelium (2H11) cell lines. A549, CT26 and 2H11 cells were grown in full-strength DMEM with 4.5 g/L glucose, L-glutamine, sodium pyruvate and 3.7 g/L NaHCO3 (BioTech) with addition of 10% fetal bovine serum (BioTech, Poland) and supplemented by antibiotics (penicillin/streptomycin). Before the experiments, the cells were washed with PBS, removed by trypsinization, then re-plated into microplate (or culture flask) with appropriate cells density and maintained in a humidified atmosphere at 37 °C and 5% CO2.
MTT cytotoxicity assay (which determines the mitochondrial activity), based upon the ability of living cells to reduce (3-(4,5-dimethylthiazol-2-yl)2,5-diphenyl tetrazolium bromide (MTT) into formazan was used to assess photosensitizer-mediated cytotoxicity. Two identical 96-well plates with A549, CT26 or 2H11 cell cultures seeded on 96-plate microplate (10^4 per well) were used for each experiment. When the cells were attached to the plates, PS solution in growth medium (DMSO<0.5%) at concentrations between 0.1 to 100 μM was added to the culture. Treated cultures were incubated for optimal time (estimated experimentally) at 37°C in the dark. […] Data were expressed as mean absorbance value of six samples and standard error of the mean.

E. coli (K12) = test: Photodynamic inactivation of microorganisms, CFU; assay type: cell-based; details: PDI 10 J/cm^2, 420±20 nm, concentration not given
Description: (§1) The microorganisms used in PDI were: S. aureus (8325–4), E. faecalis (ATCC29212), E. coli (K12), P. aeruginosa (ATCC19660), S. marcescens (ATCC14756) and C. albicans (DAY286). The planctonic bacteria cells were cultured in brain heart infusion broth (Sigma-Aldrich) and LB Broth/Lennox (BioShop Lab Science Products) in an orbital incubator (37°C, 130 rpm), until the optical density reached 0.5, which corresponds to approximately 10^7 CFU per mL. The fungal yeasts were cultured in YPD Broth (BioShop) with overnight aeration at 30°C to reach ca. 10^6 CFU/mL. For PDI experiments cell suspensions of bacteria or fungal yeasts were incubated with various concentrations of the porphyrins at pH 7.4 (PBS) for 1 h in the dark at room temperature. Aliquots (1 mL) were transferred to a 12-well plate and illuminated with a blue light. We used blue-LED array (420±20 nm) to deliver a light dose of 10 J/cm^2 (measured with a power meter). Cells treated with photosensitizers in the dark were incubated covered with aluminum foil for the same time as the PDI groups (1 h). After illumination (or dark incubation) samples were shaken, diluted in PBS, mixed and plated (LB agar). Aliquots were taken from each well to determine the CFU value. Plates were streaked in triplicate and incubated for 12–36 h at 30 °C (for fungal yeasts) or 37 °C (for bacteria) in the dark to allow colony formation.

[2] = test system: P. aeruginosa (ATCC19660); test: Photodynamic inactivation of microorganisms, CFU; assay type: cell-based; details: PDI 10 J/cm^2, 420±20 nm, concentration not given
Description: as §1

S. aureus (8325–4) = test: Photodynamic inactivation of microorganisms, CFU; assay type: cell-based; details: 20 μM, 10 min irradiation (10 J/cm^2, 420±20 nm)
Description: as §1

Chain of HSA (P02768 25-609): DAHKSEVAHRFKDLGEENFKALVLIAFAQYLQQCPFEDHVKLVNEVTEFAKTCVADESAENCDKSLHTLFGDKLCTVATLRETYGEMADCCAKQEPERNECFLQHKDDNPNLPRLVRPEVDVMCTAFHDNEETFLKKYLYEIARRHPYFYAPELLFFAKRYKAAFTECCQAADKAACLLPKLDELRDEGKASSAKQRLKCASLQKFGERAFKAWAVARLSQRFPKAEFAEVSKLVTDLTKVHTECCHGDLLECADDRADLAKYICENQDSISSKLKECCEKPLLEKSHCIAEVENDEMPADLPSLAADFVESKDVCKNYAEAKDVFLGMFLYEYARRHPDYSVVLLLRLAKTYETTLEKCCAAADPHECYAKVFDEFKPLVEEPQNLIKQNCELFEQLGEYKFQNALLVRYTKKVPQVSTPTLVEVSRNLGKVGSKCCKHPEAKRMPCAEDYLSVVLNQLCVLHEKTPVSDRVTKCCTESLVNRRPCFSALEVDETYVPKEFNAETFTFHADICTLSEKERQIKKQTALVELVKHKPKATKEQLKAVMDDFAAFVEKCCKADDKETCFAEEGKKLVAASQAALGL

With `O=S(=O)(O)c1ccc(F)c(-c2c3nc(c(-c4c(F)ccc(S(=O)(=O)O)c4F)c4ccc([nH]4)c(-c4c(F)ccc(S(=O)(=O)O)c4F)c4nc(c(-c5c(F)ccc(S(=O)(=O)O)c5F)c5ccc2[nH]5)C=C4)C=C3)c1F` [F2POH, 5,10,15,20-tetrakis(2,6-difluoro-3-sulfophenyl)porphyrin] the “KSV (Stern-Volmer constant), HSA” value (HSA; HSA fluorescence quenching, PBS, room temperature) was 2.24 10^5M^-1, the “n (number of binding sites), HSA” value (HSA; Scatchard analysis) was 1 and the “Particle Diameter (hydrodynamic diameter)” value [1] was “ca. 115 nm”. The “Cytotoxicity in the dark” value (A549 cells) was 25%, the Decrease in survival (E. coli (K12)) was 1.5–2 logs and the “Decrease in survival / bacteria CFU killing” value [2] was 1.5–2 logs. For the same compound, the “Reduction in colony forming units (CFU)” value (S. aureus (8325–4)) was 6 logs.
